The text below walks through data of EP2758382B1, “HETEROCYCLOCARBONYLAMINOTHIAZOLES, COSMETIC AND DERMATOLOGICAL PREPARATIONS CONTAINING THEM, AND THEIR USE FOR THE TREATMENT AND PROPHYLAXIS OF UNWANTED PIGMENTATION OF THE SKIN” (Beiersdorf AG, priority 2011, dated 2013).

For this experiment, the target named is T1, humane Tyrosinase (Homo sapiens, UniProt P14679).
T1 sequence (P14679 19-529): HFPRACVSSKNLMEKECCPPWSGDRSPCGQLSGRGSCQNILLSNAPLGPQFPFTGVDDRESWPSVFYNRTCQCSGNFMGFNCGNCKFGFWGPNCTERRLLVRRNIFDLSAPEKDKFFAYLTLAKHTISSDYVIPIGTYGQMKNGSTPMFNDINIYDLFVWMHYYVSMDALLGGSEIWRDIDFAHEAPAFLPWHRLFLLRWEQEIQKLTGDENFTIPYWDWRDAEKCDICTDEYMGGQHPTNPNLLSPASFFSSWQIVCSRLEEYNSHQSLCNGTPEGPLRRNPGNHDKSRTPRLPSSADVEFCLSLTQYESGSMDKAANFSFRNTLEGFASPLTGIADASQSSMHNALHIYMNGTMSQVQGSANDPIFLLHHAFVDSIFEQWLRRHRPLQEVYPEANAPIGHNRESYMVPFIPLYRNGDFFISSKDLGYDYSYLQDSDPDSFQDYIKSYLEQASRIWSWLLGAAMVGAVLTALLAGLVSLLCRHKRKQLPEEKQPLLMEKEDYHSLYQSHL
The experiment in a line: Enzyme test: conversion of L-DOPA to L-Dopachinon by human tyrosinase, MBTH detection, absorption at 490 nm. Type of experiment: biochemical. Particulars: Konzentration 10 µg/mL; substrate L-DOPA. The text has this: Die Wirksamkeit der Thiazole wurde mit einem Enzymtest belegt, in der Umsatz von L-DOPA zu L-Dopachinon durch eine humane Tyrosinase gemessen wurde. Bei dieser literaturbekannten Methode (Winder, A.J. and Harris, H., New assays for the tyrosine hydroxylase and dopa oxidase activities of tyrosinase. Eur. J. Blochem. (1991), 198, 317-26) wird das Reaktionsprodukt L-Dopaquinone mit MBTH (3-methyl-2-benzothiazoline hydrazone) zu einer pinkfarbenen Substanz umgesetzt, deren Zunahme über die Zeit durch Absorption bei 490 nm gemessen wird. In Tabelle ein sind Wirksamkeitsdaten für einige der beanspruchten Substanzen beispielhaft dargestellt. Daraus lässt sich schließen, dass die erfindungsgemäßen Substanzen äußerst effektive pigmentierungs-inhibierende Substanzen sind.
`CCN1CCN(c2nc(-c3ccc(O)cc3O)cs2)CC1` [4-(2-(4-Ethylpiperazin-1-yl)thiazol-4-yl)benzen-1,3-diol]: the “Inhibition (% der Kontrolle)” value is recorded as 91 % der Kontrolle. As for `Oc1ccc(-c2csc(N3CCNCC3)n2)c(O)c1` [4-(2-(Piperazin-1-yl)thiazol-4-yl)benzen-1,3-diol], the “Inhibition (% der Kontrolle)” value turned out to be 93 % der Kontrolle. For `Oc1ccc(-c2csc(N3CCCCC3)n2)c(O)c1` [4-(2-(Piperidin-1-yl)thiazol-4-yl)benzen-1,3-diol], the “Inhibition (% der Kontrolle)” value is given as 82 % der Kontrolle. Turning to `Oc1ccc(-c2csc(N3CCOCC3)n2)c(O)c1` [4-(2-Morpholinothiazol-4-yl)benzen-1,3-diol], the “Inhibition (% der Kontrolle)” value is recorded as 91 % der Kontrolle. Take `CCN1CCN(C(=O)Nc2nc(-c3ccc(O)cc3O)cs2)CC1` [N-(4-(2,4-dihydroxyphenyl)thiazol-2-yl)-4-ethylpiperazin-1-carboxamid]: the “Inhibition (% der Kontrolle)” value was 94 % der Kontrolle. The result for `O=C(Nc1nc(-c2ccc(O)cc2O)cs1)N1CCOCC1` [N-(4-(2,4-dihydroxyphenyl)thiazol-2-yl)morpholin-4-carboxamid] reads 97 % der Kontrolle; that for `O=C(Nc1nc(-c2ccc(O)cc2O)cs1)N1CCNCC1` [N-(4-(2,4-dihydroxyphenyl)thiazol-2-yl)piperazin-1-carboxamid], 94 % der Kontrolle; that for `O=C(Nc1nc(-c2ccc(O)cc2O)cs1)N1CCCCC1` [N-(4-(2,4-dihydroxyphenyl)thiazol-2-yl)piperidin-1-carboxamid], 97 % der Kontrolle.
